Results taken from patent US7803793B2, “Heterocyclic derived metalloprotease inhibitors” (Janssen Pharmaceutica NV, priority 2006, dated 2010).
Read-outs that look alike come from different tables or passages of the source.

How the values were obtained:
all MMPs tested = conditions: read-out: IC50's on all MMPs tested; cited from earlier work
MMP-9 = molecular target: T1, MMP-9 (Homo sapiens, UniProt P14780); assay: MMP enzymatic assay (Trupoint peptide), MMP-9; format: biochemical
T1 construct: Human MMP-9 catalytic domain (aa 107-446)
T1 sequence (P14780 107-446): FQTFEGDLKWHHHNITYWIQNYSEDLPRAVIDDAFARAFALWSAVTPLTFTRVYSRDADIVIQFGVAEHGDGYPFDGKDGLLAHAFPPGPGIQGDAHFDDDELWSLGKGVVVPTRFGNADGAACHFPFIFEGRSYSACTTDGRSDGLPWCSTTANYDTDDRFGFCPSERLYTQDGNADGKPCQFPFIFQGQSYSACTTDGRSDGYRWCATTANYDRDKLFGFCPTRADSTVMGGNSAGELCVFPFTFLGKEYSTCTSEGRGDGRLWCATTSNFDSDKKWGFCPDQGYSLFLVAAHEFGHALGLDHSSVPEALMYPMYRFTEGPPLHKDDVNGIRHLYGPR

MMP-2 = molecular target: T2, MMP-2 (Homo sapiens, UniProt P08253); assay: MMP enzymatic assay (Trupoint peptide), MMP-2; format: biochemical
T2 construct: Human MMP-2 full length (aa 1-660)
T2 sequence (P08253 30-660): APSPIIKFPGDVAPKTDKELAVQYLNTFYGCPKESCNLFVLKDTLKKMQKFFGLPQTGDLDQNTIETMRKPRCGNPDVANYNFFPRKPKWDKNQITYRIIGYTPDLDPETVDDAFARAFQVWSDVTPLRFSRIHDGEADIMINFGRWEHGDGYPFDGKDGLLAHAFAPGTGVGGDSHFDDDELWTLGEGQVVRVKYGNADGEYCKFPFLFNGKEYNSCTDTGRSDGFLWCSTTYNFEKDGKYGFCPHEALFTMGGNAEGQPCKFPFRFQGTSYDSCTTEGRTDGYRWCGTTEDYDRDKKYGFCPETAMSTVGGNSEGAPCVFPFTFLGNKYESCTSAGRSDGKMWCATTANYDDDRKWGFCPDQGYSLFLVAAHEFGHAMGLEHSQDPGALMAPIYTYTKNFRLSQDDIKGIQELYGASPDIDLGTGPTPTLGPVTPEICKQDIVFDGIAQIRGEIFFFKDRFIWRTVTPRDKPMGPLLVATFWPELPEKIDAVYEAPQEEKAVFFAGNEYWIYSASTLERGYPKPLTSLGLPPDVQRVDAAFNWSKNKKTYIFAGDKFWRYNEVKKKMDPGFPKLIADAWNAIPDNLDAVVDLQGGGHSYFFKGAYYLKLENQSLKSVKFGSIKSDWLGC

Row | Compound | IC50 (all MMPs tested) [nM] | IC50 (MMP-9) [nM] | IC50 (MMP-2) [nM] | IC50 (MMP-2; read-out: MMP-2 nM IC50) [nM]
1 | CNC(=O)[C@H](Cc1c[nH]c2ccccc12)NC(=O)[C@H](Cc1ccccc1)C1OCCN(O)C1=O (stereo partly drawn) | 20100 to 104000 | – | – | –
2 | O=C1C(S(=O)(=O)c2ccc(-c3ccc(Cl)cc3)cc2)CCCCN1O (stereo not drawn) [Compound 82, 3-(4′-Chloro-biphenyl-4-sulfonyl)-1-hydroxy-azepan-2-one] | – | > 1000 | > 1000 | –
3 | O=C1C(S(=O)(=O)c2ccc(-c3ccccc3)cc2)CCCCN1O (stereo not drawn) [Compound 83, 3-(Biphenyl-4-sulfonyl)-1-hydroxy-azepan-2-one] | – | > 1000 | > 1000 | –
4 | N#Cc1ccc(-c2ccc(S(=O)(=O)C3CCCCN(O)C3=O)cc2)cc1 (stereo not drawn) [Compound 84, 4′-(1-Hydroxy-2-oxo-azepane-3-sulfonyl)-biphenyl-4-carbonitrile] | – | > 1000 | > 1000 | –
5 | Cc1ccc(-c2ccc(S(=O)(=O)C3CCCCN(O)C3=O)cc2)cc1 (stereo not drawn) [Compound 86, 1-Hydroxy-3-(4′-methyl-biphenyl-4-sulfonyl)-azepan-2-one] | – | > 1000 | > 1000 | –
6 | O=c1c(N(CCN2CCOCC2)S(=O)(=O)c2ccc(Oc3ccc(Cl)cc3)cc2)cccn1O [Compound 87, 4-(4-Chloro-phenoxy)-N-(1-hydroxy-2-oxo-1,2-dihydro-pyridin-3-yl)-N-(2-morpholin-4-yl-ethyl)-benzenesulfonamide] | – | 4.2 | – | 5
7 | Cc1ccc(-c2ccc(S(=O)(=O)N[C@@H]3CC=CCN(O)C3=O)s2)cc1 [Compound 90] | – | 8.6 | 4.2 | –
8 | Cc1ccc(C#Cc2ccc(S(=O)(=O)N(CCN3CCOCC3)C3CC=CCN(O)C3=O)s2)cc1 (stereo not drawn) [Compound 91] | – | 0.6 | 2.2 | –
9 | O=C1C(NS(=O)(=O)c2ccc(Oc3ccc(Cl)cc3)cc2)CCCCN1O (stereo not drawn) [Compound 92] | – | 5.9 | 3.7 | –
10 | O=C1C(N(CCN2CCOCC2)S(=O)(=O)c2ccc(-c3ccc(Cl)cc3)s2)CC=CCN1O (stereo not drawn) [Compound 93] | – | 17.2 | 16.4 | –
11 | O=C1C(CS(=O)(=O)c2ccc(Oc3ccccc3)cc2)NCCCN1O (stereo not drawn) [Compound 94] | – | 21.1 | 36.8 | –
12 | O=C1C(S(=O)(=O)c2ccc(-c3ccc(F)cc3)cc2)CCCCN1O (stereo not drawn) [Compound 95] | – | 1190 | 584 | –
13 | COc1ccc(S(=O)(=O)Cc2cccn(O)c2=O)cc1 [Compound 96] | – | > 1000 | > 1000 | –
14 | COc1ccc(Oc2ccc(S(=O)(=O)Cc3cccn(O)c3=O)cc2)cc1 [Compound 97] | – | 7.26 | – | 17.3
15 | O=c1c(N(CCN2CCSCC2)S(=O)(=O)c2ccc(Oc3ccc(Cl)cc3)cc2)cccn1O [Compound 98] | – | 4.9 | – | 6.1
16 | CN1CCN(CCN(c2cccn(O)c2=O)S(=O)(=O)c2ccc(Oc3ccc(Cl)cc3)cc2)CC1 [Compound 99] | – | 1.3 | – | 1.7
17 | N-(1-Hydroxy-2-oxo-1,2-dihydro-pyridin-3-yl)-N-methyl-4-p-tolyloxy-benzene-sulfonamide [Compound 26] | – | 3.4 | – | 6.1
